Experimental findings from ChEMBL document CHEMBL4229357, “1-Aroylindoline-hydroxamic acids as anticancer agents, inhibitors of HSP90 and HDAC” (Eur J Med Chem, 2018) are described below.

For test [1], the target named is T1, Heat shock protein HSP90 (Homo sapiens) (UniProt P07900+P08238). The test can be described thus: Inhibition of HSP90 in human HL60 cells assessed as induction of HSP70 expression at 1 uM by Western blot analysis. The test is classed as cell-based. The settings on record: TDE = time-dependent effect.
Test [2] has as its target T1, Heat shock protein HSP90 (Homo sapiens). The test can be described thus: Inhibition of HSP90 in human HL60 cells assessed as downregulation of phosphorylated STAT3 expression at 1 uM by Western blot analysis. The settings on record: TDE = time-dependent effect. The test is classed as cell-based.
For test [3] the target is unchanged. Briefly: Inhibition of HSP90 in human HL60 cells assessed as downregulation of phosphorylated Akt expression at 1 uM by Western blot analysis. In kind it is cell-based. The settings on record: TDE = time-dependent effect.
For test [4] the target is unchanged. The test can be described thus: Inhibition of HSP90 in human HL60 cells assessed as induction of HSP70 expression after 24 hrs by Western blot analysis. In kind it is cell-based.
For test [5] the target is unchanged. Briefly: Inhibition of HSP90 in human HL60 cells assessed as downregulation of phosphorylated Akt expression after 24 hrs by Western blot analysis. In kind it is cell-based.
For test [6] the target is unchanged. Briefly: Inhibition of HSP90 in human HL60 cells assessed as downregulation of phosphorylated STAT3 expression after 24 hrs by Western blot analysis. In kind it is cell-based.
A further test concerns NCI-H1975. The test can be described thus: Antiproliferative activity against human NCI-H1975 cells after 48 hrs by sulforhodamine B assay. In kind it is functional. The settings on record: NCI-H1975, 48 h.
Test [7] deals with T2, Histone deacetylase (Homo sapiens) (UniProt Q13547+O15379+Q9UBN7+Q92769+Q9UQL6+Q8WUI4+Q9BY41+Q96DB2+P56524+Q9UKV0+Q969S8). The test can be described thus: Inhibition of HDAC in human HL60 cells assessed as upregulation of acetylated histone H3 levels at 1 uM after 24 hrs by Western blot analysis. The test is classed as cell-based.
In another test the test system is HCT-116. The test can be described thus: Antiproliferative activity against human HCT116 cells after 48 hrs by sulforhodamine B assay. In kind it is functional. The note with it: HCT-116, 48 h.
Another test concerns A549. The test can be described thus: Antiproliferative activity against human A549 cells after 48 hrs by sulforhodamine B assay. The test is classed as functional.
For the next test, the target named is Histone deacetylase. The test is classed as protein assay, Homo sapiens.
Test [8] concerns the target T2, Histone deacetylase (Homo sapiens). The test can be described thus: Inhibition of HDAC in human HL60 cells assessed as upregulation of acetyl-alpha-tubulin levels at 1 uM after 24 hrs by Western blot analysis. The test is classed as cell-based.
A further test concerns HL-60. The test can be described thus: Antiproliferative activity against human HL60 cells after 48 hrs by sulforhodamine B assay. The test is classed as functional.
Test [9] deals with Heat shock protein HSP 90-alpha (Homo sapiens, UniProt P07900). Briefly: Inhibition of FITC-geldanamycin binding to HSP90alpha (unknown origin) after 3 hrs by fluorescence polarization assay.

The source made the active and inactive calls. The rule behind the calls is not given here.

Turning to `CC(C)c1cc(C(=O)N2CCc3cc(NC(=O)CCCCCCC(=O)NO)ccc32)c(O)cc1O`, the inhibition result was “Tde” in test [1]; “Tde” in [2]; “Tde” in [3]; “Dose-dependent effect” in test [4]; “Dose-dependent effect” in test [5]; “Dose-dependent effect” in [6].

Consider `COc1c(C)cnc(Cn2cnc3c(Cl)nc(N)nc32)c1C` [BIIB021], for which the concentration for 50% growth inhibition (GI50) with NCI-H1975 was 380 nM; in the test on HCT-116, 150 nM; in the test with A549 (Homo sapiens, A549, 48 h), 330 nM; in the test with HL-60 (Homo sapiens, HL-60, 48 h), 590 nM. The inhibition result in test [7] and in [8] was “Active” throughout. Besides, the IC50 at Histone deacetylase is recorded as more than 1000 nM.

Consider `O=C(CCCCCCC(=O)Nc1ccccc1)NO` [VORINOSTAT], for which the GI50 in the test with NCI-H1975 was determined as 1410 nM; in the test on HCT-116, 150 nM; in the test on A549, 1020 nM; with HL-60 it was 1740 nM. The IC50 in [9] was more than 1000 nM.
